One may read the EC50 as the midpoint of the concentration-response curve. For orientation: IC50 means the point on the concentration scale where inhibition reaches its midpoint. Read a high IC50 as a need for much substance.

Consider 13 compounds from ChEMBL document CHEMBL1128052, “Further structure-activity-relationship studies on A/C/D-ring analogs of complement inhibitor K-76” (Bioorg Med Chem Lett, 1995).

Assay [1] is described as follows: Intrinsic Lytic Activity required to cause 50% hemolysis in the absence of complement. It is filed as functional, Ovis aries.
The species entered for the next assay is Homo sapiens. In words: Inhibitory concentration required to inhibit human complement induced hemolysis by 50%. It is filed as functional, organism-based.
Assay [2] can be described thus: Intrinsic Lytic Activity required to cause 50% hemolysis in the absence of complement; Not bioassayed. It is filed as functional, Ovis aries.

SMILES strings stand for the structures.

In assay [1], `CC1=CCC([C@]2(C)Cc3c(Oc4ccccc4)cc(C(=O)O)cc3O2)CC1` (stereo partly specified) yielded an EC50 of under 200 µM. In addition, in the assay listed under Homo sapiens, the IC50 was over 824 µM.

Consider `CC1=CCC([C@@]2(C)Cc3c(O)ccc(C(=O)O)c3O2)CC1` (stereo partly specified), for which, in assay [2], the EC50 entry is given as “Not bioassayed”. In addition, in the assay listed under Homo sapiens, 2100 µM corresponded to half-maximal inhibition (IC50).

In assay [1], `COc1cc(C(=O)O)cc2c1CC(C)(C1CC[C@](C)(O)[C@H](O)C1)O2` (stereo partly specified) had an EC50 of over 892 µM. In addition, in the assay listed under Homo sapiens, the IC50 is over 892 µM.

For the compound `COc1ccc(C(=O)O)c2c1C[C@](C)(C1CC[C@](C)(O)[C@H](O)C1)O2` (stereo partly specified), in assay [2], the EC50 result was “Not bioassayed”. Moreover, 1600 µM corresponded to half-maximal inhibition in the assay listed under Homo sapiens (IC50).

For the compound `CC1=CCC([C@]2(C)Cc3c(O)cc(C(=O)O)cc3O2)CC1` (stereo partly specified), the EC50 in assay [1] was over 1040 µM. Further, the half-maximal inhibitory concentration (IC50) in the assay filed under Homo sapiens turned out to be 730 µM.

The compound `CC1=CCC([C@]2(C)Cc3c(Oc4ccccc4)cc(C=O)cc3O2)CC1` (stereo partly specified) showed an EC50 in assay [1] of over 862 µM. The IC50 in the assay listed under Homo sapiens was over 862 µM.

As for `C[C@@H]1CCC2C(C)(C)[C@H](O)[C@H](O)C[C@]2(C)[C@@]12Cc1c(O)cc(C(=O)O)c(C=O)c1O2` (stereo partly specified), in assay [1], the concentration for a half-maximal effect (EC50) is over 680 µM. In addition, the IC50 in the assay filed under Homo sapiens stood at 680 µM.

In turn, `COc1cc(C(=O)O)cc2c1C[C@@](C)(C1CC=C(C)CC1)O2` (stereo partly specified) displayed an EC50 in assay [1] of 660 µM. In addition, the IC50 in the assay listed under Homo sapiens was over 1000 µM.

As to `COc1cc(C=O)cc2c1C[C@@](C)(C1CC=C(C)CC1)O2` (stereo partly specified), the EC50 in assay [1] is over 1050 µM. Further, in the assay listed under Homo sapiens, the IC50 is over 1050 µM.

For `CC1=CCC([C@]2(C)Cc3c(O)ccc(C(=O)O)c3O2)CC1` (stereo partly specified), the EC50 entry in assay [2] is listed as “Not bioassayed”. This compound returned an IC50 in the assay listed under Homo sapiens of 2400 µM.

As for `CC1=CCC([C@]2(C)Cc3c(O)cc(C=O)cc3O2)CC1` (stereo partly specified), the EC50 in assay [1] is under 280 µM. In addition, the IC50 in the assay listed under Homo sapiens is 515 µM.

`COc1ccc(C(=O)O)c2c1C[C@@](C)(C1CC=C(C)CC1)O2` (stereo partly specified): the EC50 result in assay [2] was “Not bioassayed”. For the same compound, 380 µM corresponded to half-maximal inhibition in the assay listed under Homo sapiens (IC50).

In the case of `COc1ccc(C(=O)O)c2c1C[C@](C)(C1CC=C(C)CC1)O2` (stereo partly specified), the EC50 result in assay [2] was “Not bioassayed”. Moreover, in the assay filed under Homo sapiens, the IC50 is 680 µM.
